Results published in US20080027079A1, “DIHYDROOROTATE DEHYDROGENASE INHIBITORS WITH SELECTIVE ANTI-MALARIAL ACTIVITY” (Board of Regents, University of Texas System, priority 2006, published 2008).
Read-outs that look alike come from different tables or passages of the source. Blank lines part the entries; values can stand above or below the compound they belong to.

Assays:
[1] = target: T1, P. falciparum dihydroorotate dehydrogenase (pfDHODH) (Plasmodium falciparum, UniProt Q08210); experiment: biochemical
T1 sequence (Q08210 24-569): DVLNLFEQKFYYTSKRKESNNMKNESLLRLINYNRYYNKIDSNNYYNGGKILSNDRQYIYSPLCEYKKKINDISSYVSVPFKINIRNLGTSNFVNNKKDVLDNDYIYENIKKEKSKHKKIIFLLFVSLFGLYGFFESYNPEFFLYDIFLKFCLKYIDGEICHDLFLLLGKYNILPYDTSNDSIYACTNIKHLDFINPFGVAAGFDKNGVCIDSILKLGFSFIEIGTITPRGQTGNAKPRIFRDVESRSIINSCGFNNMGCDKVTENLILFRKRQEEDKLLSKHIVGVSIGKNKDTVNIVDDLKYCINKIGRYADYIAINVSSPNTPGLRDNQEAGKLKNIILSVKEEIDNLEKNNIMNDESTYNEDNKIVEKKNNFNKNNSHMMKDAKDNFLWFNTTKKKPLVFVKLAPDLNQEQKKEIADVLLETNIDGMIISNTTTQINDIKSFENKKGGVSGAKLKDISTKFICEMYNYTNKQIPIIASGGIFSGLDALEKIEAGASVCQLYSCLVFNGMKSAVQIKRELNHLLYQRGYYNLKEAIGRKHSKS
Procedure: (§1) Measurement of enzyme inhibition. For studying inhibition of Plasmodium or human DHODH enzyme, two assays that are in routine use are described, for example, in Baldwin, et al. (2002) J Biol Chem., 277, 41827-41834, and Baldwin, et al. (2005) J. Biol. Chem., 280. 21847-21853. Briefly, these assays are as follows: 1) A […] assay thay that monitors 2,6-dichloroindophenol (DCIP) reduction at 600 nm (e=18.8 mM^−1 cm^−1) is performed as either a continuous assay where absorbance is recorded over time. The assay solution containing 100 mM HEPES, pH 8.0, 150 mM NaCl, 10% glycerol, 0.05% Triton X-[…] CoQ0 (coenzyme QD), […] L-dihydroorotate, and […] DCIP. Reactions are initiated by addition of enzyme to a final concentration of 5-50 nM and the temperature is maintained at 25° C with a circulating water bath. 2) A direct assay that follows the production of orotic acid by measuring the absorbance change at 287 nm (ε=4.3 mM^−1 cm^−1); DCIP is not included, but all other components of the assay are as described in method one. Inhibitor stocks are prepared in DMSO, and the inhibitors, such as GR-34, are added to these assays over a concentration range that encompasses their IC50 value and, the IC50's are determined from a plot of reaction rate in the presence of inhibitor/reaction rate in the absence of inhibitor (vi/vo) versus inhibitor concentration (Eq. 1). [formula]

[2] = target: human dihydroorotate dehydrogenase (hDHODH) (Homo sapiens, UniProt Q02127); experiment: hDHODH enzyme inhibition (DCIP colorimetric or direct orotate assay); type: biochemical
Procedure: as §1

[3] = system: P. falciparum 3D7; experiment: 3H-hypoxanthine uptake in P. falciparum-infected erythrocytes in culture (whole cell assay); type: cell-based; details: Plasmodium falciparum, Erythrocyte; 3D7 strain, in vitro
Procedure: In vitro evaluation of compound efficacy on the human malaria parasite, P. falciparum. To study inhibition of cell proliferation, ^3H-hypoxanthine uptake is measured in drug-treated, P. falciparum-infected erythrocytes grown in culture, pursuant to the methodology of Desjardins, et al. (1979) Antimicrobial Agents and Chemotherapy 16, 710-718, and Zhang and Rathod (2002) Science 296, 545-547.

Sequence of human dihydroorotate dehydrogenase (hDHODH) (Q02127 whole entry): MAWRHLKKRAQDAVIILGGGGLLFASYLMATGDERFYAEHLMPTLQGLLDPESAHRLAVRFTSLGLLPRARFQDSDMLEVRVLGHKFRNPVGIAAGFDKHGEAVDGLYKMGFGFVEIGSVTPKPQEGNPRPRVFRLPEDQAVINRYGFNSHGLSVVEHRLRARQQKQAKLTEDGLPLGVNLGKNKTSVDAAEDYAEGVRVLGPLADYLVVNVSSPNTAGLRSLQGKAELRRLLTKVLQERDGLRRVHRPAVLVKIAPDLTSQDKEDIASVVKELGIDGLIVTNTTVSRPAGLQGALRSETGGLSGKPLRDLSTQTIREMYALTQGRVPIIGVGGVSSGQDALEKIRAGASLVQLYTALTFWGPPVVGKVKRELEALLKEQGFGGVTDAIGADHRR

SMILES: Cc1cc(Nc2cc3ccccc3cc2O)n2ncnc2n1 [5-methyl-N-(3-hydroxynaphthalen-2-yl)-[1,2,4]triazolo[1,5-a]pyrimidin-7-amine]
- IC50 ([1]; read-out: IC50 pf DHODH): 2400 nM
- EC50 [3]: 600 nM

SMILES: Cc1nc2ncnn2c(Nc2ccc3cc4ccccc4cc3c2)c1C [N-(anthracen-2-yl)-5,6-dimethyl-[1,2,4]triazolo[1,5-a]pyrimidin-7-amine]
- IC50 ([1]; read-out: IC50 pf DHODH): 250 nM

SMILES: Cc1cc(Nc2ccc3c(=O)ccoc3c2)n2ncnc2n1 [5-methyl-N-(4H-chromen-4-on-7-yl)-[1,2,4]triazolo[1,5-a]pyrimidin-7-amine]
- IC50 ([1]; read-out: IC50 pf DHODH): 1900 nM
- IC50 [2]: > 200000 nM

SMILES: Cc1cc(Nc2cnc3ccccc3c2)n2ncnc2n1 [5-methyl-N-(quinolin-3-yl)-[1,2,4]triazolo[1,5-a]pyrimidin-7-amine]
- IC50 ([1]; read-out: IC50 pf DHODH): 2000 nM
- IC50 [2]: > 200000 nM

SMILES: Cc1cc(Nc2ccc3ncccc3c2)n2ncnc2n1 [5-methyl-N-(quinolin-6-yl)-[1,2,4]triazolo[1,5-a]pyrimidin-7-amine]
- IC50 [1]: 1300 nM
- IC50 [2]: > 200000 nM

Further lines, results first:

- IC50 ([1]; read-out: IC50 pf DHODH): 23 nM
- IC50 [2]: > 200000 nM
- EC50 [3]: 120 nM
SMILES: Cc1cc(Nc2ccc3cc4ccccc4cc3c2)n2ncnc2n1 [5-methyl-N-(anthracen-2-yl)-[1,2,4]triazolo[1,5-a]pyrimidin-7-amine]

- IC50 ([1]; read-out: IC50 pf DHODH): 130 nM
SMILES: Cc1nc2ncnn2c(Nc2ccc3ccccc3c2)c1C [5,6-dimethyl-N-(naphthalen-2-yl)-[1,2,4]triazolo[1,5-a]pyrimidin-7-amine]

- IC50 ([1]; read-out: IC50 pf DHODH): 126 nM
- IC50 [2]: > 200000 nM
SMILES: FC(F)(F)c1cc(Nc2ccc3ccccc3c2)n2ncnc2n1 [5-trifluoromethyl-N-(naphthalen-2-yl)-[1,2,4]triazolo[1,5-a]pyrimidin-7-amine]

- IC50 [2]: > 600000 nM
- EC50 [3]: 50 nM
SMILES: Cc1cc(Nc2ccc3ccccc3c2)n2ncnc2n1 [5-methyl-N-(naphthalen-2-yl)-[1,2,4]triazolo[1,5-a]pyrimidin-7-amine]

- IC50 ([1]; read-out: IC50 pf DHODH): 240 nM
SMILES: CCc1cc(Nc2ccc3cc4ccccc4cc3c2)n2ncnc2n1 [N-(anthracen-2-yl)-5-ethyl-[1,2,4]triazolo[1,5-a]pyrimidin-7-amine]

- IC50 ([1]; read-out: IC50 pf DHODH): 280 nM
SMILES: CCc1cc(Nc2ccc3ccccc3c2)n2ncnc2n1 [5-ethyl-N-(naphthalen-2-yl)-[1,2,4]triazolo[1,5-a]pyrimidin-7-amine]
